Laboratory results published in PubChem BioAssay AID248 (DTP/NCI, 2004).
Several values for one entry are separate records, joined by “and”; a condition that tells them apart may be missing. Equal values may be shown once. Toxic doses and inconclusive results are not listed. Rule as the data show it: active = T/C of 150% or more; inactive = T/C below 125%.

Tested on: L1210 leukemia ip in BDF1 mice, survival T/C
Assay: NCI In Vivo Anticancer Drug Screen. Data for tumor model L1210 Leukemia (intraperitoneal) in B6D2F1 (BDF1) mice
Conditions: endpoint: mean survival time, higher = longer survival
Outline: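 Value reflects the ratio of survival in compound-treated mice to survival in vehicle-treated controls, with both groups carrying the same transplanted tumor.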

[1] = dose: 50.0 mg/kg/injection, schedule: Q04DX003 (ip), vehicle: Klucel (hydroxypropylcellulose) (HPC)
[2] = dose: 100.0 mg/kg/injection, schedule: Q04DX003 (ip), vehicle: Klucel (hydroxypropylcellulose) (HPC)
[3] = dose: 200.0 mg/kg/injection, schedule: Q04DX003 (ip), vehicle: Klucel (hydroxypropylcellulose) (HPC)
[4] = dose: 400.0 mg/kg/injection, schedule: Q04DX003 (ip), vehicle: Klucel (hydroxypropylcellulose) (HPC)
[5] = dose: 75.0 mg/kg/injection, schedule: Q01DX009 (ip), vehicle: Klucel (hydroxypropylcellulose) (HPC)
[6] = dose: 100.0 mg/kg/injection, schedule: Q01DX001 (ip), vehicle: saline
[7] = dose: 200.0 mg/kg/injection, schedule: Q01DX001 (ip), vehicle: saline
[8] = dose: 400.0 mg/kg/injection, schedule: Q01DX001 (ip), vehicle: saline
[9] = dose: 100.0 mg/kg/injection, schedule: Q04DX003 (ip), vehicle: saline
[10] = dose: 200.0 mg/kg/injection, schedule: Q04DX003 (ip), vehicle: saline
[11] = dose: 100.0 mg/kg/injection, schedule: Q04DX003 (ip), vehicle: saline with Tween-80
[12] = dose: 200.0 mg/kg/injection, schedule: Q04DX003 (ip), vehicle: saline with Tween-80
[13] = dose: 400.0 mg/kg/injection, schedule: Q04DX003 (ip), vehicle: saline with Tween-80
[14] = dose: 100.0 mg/kg/injection, schedule: Q01DX009 (ip), vehicle: Klucel (hydroxypropylcellulose) (HPC)
[15] = dose: 200.0 mg/kg/injection, schedule: Q01DX009 (ip), vehicle: Klucel (hydroxypropylcellulose) (HPC)
[16] = dose: 100.0 mg/kg/injection, schedule: Q01DX009 (ip), vehicle: saline with Tween-80
[17] = dose: 200.0 mg/kg/injection, schedule: Q01DX009 (ip), vehicle: saline with Tween-80
[18] = dose: 400.0 mg/kg/injection, schedule: Q01DX009 (ip), vehicle: saline with Tween-80

Measured: T/C

O=C(O)C1CCC(C(=O)O)c2ccccc21 (centres undefined)
inactive: dose: 12.5 mg/kg/injection, schedule: Q04DX003 (ip), vehicle: Klucel (hydroxypropylcellulose) (HPC) 91 % of control | dose: 25.0 mg/kg/injection, schedule: Q04DX003 (ip), vehicle: Klucel (hydroxypropylcellulose) (HPC) 96 % of control | [1] 102 % of control | [2] 93 % of control and 91 % of control | [3] 95 % of control | [4] 88 % of control and 91 % of control

O=[N+]([O-])c1ccc(CCBr)cc1
inactive: dose: 50.0 mg/kg/injection, schedule: Q01DX001 (ip), vehicle: carboxymethylcellulose (CMC) 96 % of control | dose: 100.0 mg/kg/injection, schedule: Q01DX001 (ip), vehicle: carboxymethylcellulose (CMC) 94 % of control | dose: 200.0 mg/kg/injection, schedule: Q01DX001 (ip), vehicle: carboxymethylcellulose (CMC) 100 % of control | dose: 400.0 mg/kg/injection, schedule: Q01DX001 (ip), vehicle: carboxymethylcellulose (CMC) 105 % of control

CO/C([O-])=N/S(=O)(=O)n1cc[n+](C)c1
inactive: [5] 98 % of control | dose: 150.0 mg/kg/injection, schedule: Q01DX009 (ip), vehicle: Klucel (hydroxypropylcellulose) (HPC) 86 % of control | dose: 300.0 mg/kg/injection, schedule: Q01DX009 (ip), vehicle: Klucel (hydroxypropylcellulose) (HPC) 95 % of control

O=C(O)CC(O)C(Cl)(Cl)Cl (centres undefined)
inactive: [6] 93 % of control | [7] 104 % of control | [8] 98 % of control

O=C(Nc1ccccc1Cl)N1CCOCC1
inactive: dose: 100.0 mg/kg/injection, schedule: Q04DX002 (ip), vehicle: Klucel (hydroxypropylcellulose) (HPC) 106 % of control | dose: 200.0 mg/kg/injection, schedule: Q04DX002 (ip), vehicle: Klucel (hydroxypropylcellulose) (HPC) 103 % of control | dose: 400.0 mg/kg/injection, schedule: Q04DX002 (ip), vehicle: Klucel (hydroxypropylcellulose) (HPC) 87 % of control

C/C(Cl)=C/C(=O)O
inactive: dose: 25.0 mg/kg/injection, schedule: Q04DX002 (ip), vehicle: saline 106 % of control | dose: 50.0 mg/kg/injection, schedule: Q04DX002 (ip), vehicle: saline 92 % of control | dose: 100.0 mg/kg/injection, schedule: Q01DX001 (ip), vehicle: saline with Tween-80 102 % of control | dose: 100.0 mg/kg/injection, schedule: Q04DX002 (ip), vehicle: saline 92 % of control | dose: 200.0 mg/kg/injection, schedule: Q01DX001 (ip), vehicle: saline with Tween-80 105 % of control | dose: 200.0 mg/kg/injection, schedule: Q04DX002 (ip), vehicle: saline 98 % of control and 102 % of control | dose: 400.0 mg/kg/injection, schedule: Q01DX001 (ip), vehicle: saline with Tween-80 96 % of control

CC(C)(C#CC(C)(C)OC(=O)Nc1ccccc1)OC(=O)Nc1ccccc1
inactive: [6] 98 % of control | [7] 95 % of control | [8] 101 % of control

CCCCN(CCCC)C(=O)CCC
inactive: [9] 102 % of control | [10] 95 % of control

CN(C)C(=S)SN(C)C(=O)Nc1ccccc1
inactive: [2] 105 % of control | [3] 109 % of control | [4] 107 % of control

CC(=O)CC(=O)CC(=O)c1ccccc1
inactive: [1] 108 % of control | dose: 100.0 mg/kg/injection, schedule: Q01DX001 (ip), vehicle: Klucel (hydroxypropylcellulose) (HPC) 97 % of control | [2] 96 % of control | dose: 200.0 mg/kg/injection, schedule: Q01DX001 (ip), vehicle: Klucel (hydroxypropylcellulose) (HPC) 93 % of control | [3] 105 % of control | dose: 400.0 mg/kg/injection, schedule: Q01DX001 (ip), vehicle: Klucel (hydroxypropylcellulose) (HPC) 102 % of control

Cc1cccc(NC(=O)N(O)C2(C#N)CCCCC2)c1
inactive: [6] 93 % of control | [7] 96 % of control | [8] 98 % of control

O=C(OC(c1ccccc1)c1ccccc1)C(=O)c1ccccc1
inactive: [11] 92 % of control | [12] 89 % of control | [13] 92 % of control

CS(=O)(=O)OCCCCCCCCCOS(C)(=O)=O
inactive: dose: 25.0 mg/kg/injection, schedule: Q01DX009 (ip), vehicle: Klucel (hydroxypropylcellulose) (HPC) 96 % of control | dose: 50.0 mg/kg/injection, schedule: Q01DX009 (ip), vehicle: Klucel (hydroxypropylcellulose) (HPC) 103 % of control | dose: 75.0 mg/kg/injection, schedule: Q01DX001 (ip), vehicle: other 95 % of control | [14] 105 % of control | dose: 150.0 mg/kg/injection, schedule: Q01DX001 (ip), vehicle: other 108 % of control

CC(=O)OI(OC(C)=O)c1cccc(C)c1
inactive: [14] 96 % of control | [15] 96 % of control

c1ccc(P2CCc3[nH]c4ccccc4c3C2)cc1 (centres undefined)
inactive: [16] 97 % of control | [9] 100 % of control | [17] 110 % of control | [10] 96 % of control | [18] 100 % of control | dose: 400.0 mg/kg/injection, schedule: Q04DX003 (ip), vehicle: saline 113 % of control

CCc1c(Cl)c(C)c(Cl)c(O)c1Cl
inactive: dose: 100.0 mg/kg/injection, schedule: Q04DX003 (ip), vehicle: other 102 % of control | dose: 200.0 mg/kg/injection, schedule: Q04DX003 (ip), vehicle: other 93 % of control

COc1ccc(/C=C/[N+](=O)[O-])cc1O
inactive: dose: 25.0 mg/kg/injection, schedule: Q01DX009 (ip), vehicle: saline 110 % of control | dose: 25.0 mg/kg/injection, schedule: Q04DX003 (ip), vehicle: saline 98 % of control | dose: 50.0 mg/kg/injection, schedule: Q01DX009 (ip), vehicle: saline 102 % of control | dose: 50.0 mg/kg/injection, schedule: Q04DX003 (ip), vehicle: saline 98 % of control | [9] 100 % of control | [10] 86 % of control

O=C(Nc1ccc(Cl)cc1[N+](=O)[O-])Oc1ccccc1C(=O)Nc1ccccc1
inactive: [16] 92 % of control | dose: 100.0 mg/kg/injection, schedule: Q04DX002 (ip), vehicle: saline with Tween-80 93 % of control and 95 % of control | [11] 97 % of control | [17] 91 % of control | dose: 200.0 mg/kg/injection, schedule: Q04DX002 (ip), vehicle: saline with Tween-80 98 % of control and 88 % of control | [12] 95 % of control | [18] 89 % of control and 92 % of control | dose: 400.0 mg/kg/injection, schedule: Q04DX002 (ip), vehicle: saline with Tween-80 97 % of control and 91 % of control | [13] 93 % of control

C=C(C)Cc1cnc(SCc2ccccc2)[nH]c1=O
inactive: [14] 93 % of control | [2] 97 % of control | [15] 91 % of control | [3] 103 % of control | dose: 400.0 mg/kg/injection, schedule: Q01DX009 (ip), vehicle: Klucel (hydroxypropylcellulose) (HPC) 94 % of control | [4] 104 % of control

COc1ccc(Cc2cc3cc(OC)c(OC)cc3cn2)cc1OC
inactive: [16] 103 % of control | [11] 93 % of control | [17] 105 % of control | [12] 104 % of control | [18] 121 % of control | [13] 90 % of control

CN(C)N=Nc1ccccc1C(=O)NNC(N)=S
inactive: dose: 18.75 mg/kg/injection, schedule: Q01DX009 (ip), vehicle: Klucel (hydroxypropylcellulose) (HPC) 109 % of control | dose: 37.5 mg/kg/injection, schedule: Q01DX009 (ip), vehicle: Klucel (hydroxypropylcellulose) (HPC) 116 % of control | [5] 89 % of control

C[C@]12CC[C@H]3[C@@H](CC[C@@H]4C[C@@H](O)CC[C@@]43C=O)[C@]13O[C@@H]3CC2c1ccc(=O)oc1 (some centres undefined)
inactive: dose: 0.25 mg/kg/injection, schedule: Q01DX009 (ip), vehicle: Klucel (hydroxypropylcellulose) (HPC) 100 % of control | dose: 0.5 mg/kg/injection, schedule: Q01DX009 (ip), vehicle: Klucel (hydroxypropylcellulose) (HPC) 100 % of control | dose: 1.0 mg/kg/injection, schedule: Q01DX009 (ip), vehicle: Klucel (hydroxypropylcellulose) (HPC) 100 % of control
